Laboratory results published in PMC6561105 (Journal of medicinal chemistry, 2019).
Counter-ions that a name gives are not always drawn. Marks after values point to notes of the source that are not given here.

How the values were obtained:
[1] = system: HOXA9/DNA binding (HBS, HOXA9-binding site); parameters: species or system human; settings: ELISA-derived assay and EMSA, Figure 1; SAR discussion
[2] = system: HOXA9 binding site 5′-ATTTA; test: DNase I footprinting
[3] = system: HOXA9-mediated transactivation; test: HOXA9-driven luciferase assay; type: cell-based, human; settings: K562 transfected with pCMV-AD-HOXA9 and wild-type HBS reporter, 20μM, 48H
K562 cells = test: Colony-forming assay K562; type: cell-based, human; settings: 2.5μM, 10 days, 1000 cells/well, mean +/− s.e.m
MigA9 cells [4] = settings: 2.5μM, 10 days; for MigA9 Number of colonies, Total: 1000 cells/well
HMG-box protein = HMG-box protein DNA binding; settings: specificity control
[5] = system: Itgam, Oasl2, Akap13, Arfgef1 expression in MigA9 cells; test: qRT-PCR of differentiation-associated genes; type: cell-based, murine; settings: MigA9, 5 or 10μM, 48 hours
HBS DNA sequence = test: Circular dichroism on HBS oligonucleotide; type: binding; settings: 300-400 nm, increasing drug/DNA ratio
MigA9 and/or HT-29 cells = test: Cellular distribution by fluorescence microscopy; type: cell-based; settings: intrinsic fluorescence; MigA9 20 μM 2h and/or HT-29 5μM 16H
MigA9 cells [6] = test: Cell cycle and sub-G1 analysis; type: cell-based, murine
HOXA9/HBS complex = type: binding, human; settings: from EMSA quantification

## N=C(N)c1ccc(-c2ccc(-c3ccc(C(=N)N)cc3)s2)cc1 [DB351]
[1]
  HOXA9/DNA binding inhibition (in words): inactive

## N=C(N)c1ccc(-c2ccc(-c3nc4ccc(C(=N)N)cc4[nH]3)s2)cc1 [DB818]
[2]
  recognition of 5′-ATTTA site in DNase I footprinting: protected site was clearly evidenced
[3]
  inhibition of HOXA9-mediated transactivation (luciferase): able to inhibit
K562 cells
  K562 Number of colonies, Total: 448 +/− 17
MigA9 cells [4]
  MigA9 Number of colonies, Total: 101
MigA9 cells [4]; share of total colonies
  MigA9 colonies, BFU-E (%): 3 (3%)
  MigA9 colonies, Total (%): 100%
HMG-box protein
  inhibition of DNA binding of the HMG-box protein: failed to inhibit
[5]
  over-expression of Itgam, Oasl2, Akap13 and Arfgef1: over-expression

## N=C(N)c1ccc(-c2ccc(-c3nc4cc(C(=N)N)ccc4o3)o2)cc1 [DB828]
[2]
  recognition of 5′-ATTTA site in DNase I footprinting: failed to recognize
HBS DNA sequence
  induced CD signal: only weak CD changes
[3]
  inhibition of HOXA9-mediated transactivation (luciferase): failed
MigA9 cells [4]
  MigA9 Number of colonies, BFU-E: 2
  MigA9 Number of colonies, CFU-GM: 90
  MigA9 Number of colonies, CFU-M: 16
  MigA9 Number of colonies, Total: 170
MigA9 cells [4]; share of total colonies
  MigA9 colonies, Total (%): 100%
MigA9 and/or HT-29 cells
  entry into cells and localization in the nucleus: localized to the nucleus
[5]
  over-expression of Itgam, Oasl2, Akap13 and Arfgef1: failed to achieve the similar results

## N=C(Nc1ccc(-c2ccc(-c3ccc(NC(=N)c4ccccn4)cc3)[nH]2)cc1)c1ccccn1 [DB883]
[2]
  recognition of 5′-ATTTA site in DNase I footprinting: failed to recognize

## N=C(N)c1ccc(-c2cccc(-c3nc4ccc(C(=N)N)cc4[nH]3)c2)cc1 [DB911]
MigA9 and/or HT-29 cells
  entry into cells and localization in the nucleus: could not be detected

## N=C(N)c1cccc(-c2ccc(-c3nc4cc(C(=N)N)ccc4[nH]3)cc2)c1 [DB1055]
[2]
  recognition of 5′-ATTTA site in DNase I footprinting: protected site was clearly evidenced
[3]
  inhibition of HOXA9-mediated transactivation (luciferase): able to inhibit
MigA9 cells [6]; MigA9, 15 μM
  % SubG1 48H: 1.27 +/− 0.20%
K562 cells
  K562 Number of colonies, Total: 467 +/− 12
MigA9 cells [4]
  MigA9 Number of colonies, BFU-E: 2
  MigA9 Number of colonies, CFU-G: 58
  MigA9 Number of colonies, CFU-M: 55
  MigA9 Number of colonies, Total: 115
MigA9 cells [4]; share of total colonies
  MigA9 colonies, CFU-GM (%): 0 (0%)
  MigA9 colonies, Total (%): 100%
HMG-box protein
  inhibition of DNA binding of the HMG-box protein: failed to inhibit

## N=C(N)c1ccc(-c2ccc(-c3ccc4ccc(C(=N)N)cc4c3)cc2)cc1 [DB1177]
[2]
  recognition of 5′-ATTTA site in DNase I footprinting: much weaker binding activity
HOXA9/HBS complex
  sub-group for HOXA9/DNA binding inhibition: Medium

## N=C(N)c1ccc(-c2ccc(-c3cc4ccc(C(=N)N)cc4[nH]3)o2)cc1 [DB1878]
[2]
  recognition of 5′-ATTTA site in DNase I footprinting: much weaker binding activity
MigA9 cells [6]; MigA9, 10 μM
  % SubG1 48H: 15.94 +/− 1.80 ^$ %
MigA9 cells [6]; MigA9, 15 μM
  % SubG1 48H: 27.88 +/− 16.14 * %

## N=C(N)c1ccc(-c2ccc(-c3cc4ccc(C(=N)N)cc4[nH]3)s2)cc1 [DB1879, 2-(5-(4-Carbamimidoylphenyl)thiophen-2-yl)-1H-indole-6-carboximidamide diydrochloride]
[2]
  recognition of 5′-ATTTA site in DNase I footprinting: protected site was clearly evidenced

## N=C(N)c1ccc(-c2ccc(-c3cc4ccc(C(=N)N)cc4[nH]3)s2)nc1 [DB2529, 2-(5-(5-Carbamimidoylpyridin-2-yl)thiophen-2-yl)-1H-indole-6-carboximidamide trihydrochloride]
[2]
  recognition of 5′-ATTTA site in DNase I footprinting: protected site was clearly evidenced
